# Experimental data taken from patent publication US7087228B2, “Preventing tooth decay and infective endocarditis using natural oligopeptides” (University of Southern California, priority 2002, dated 2006).
# Legend:
# [1] = tested on: GTFB expression in the wild-type S. mutans; experiment: Western blot of GTFB expression after addition of CSP to cultures; assay type: cell-based; conditions: CSP added to fresh cultures at the time of dilution, 1 to 8 mcg/mL, FIG. 6 panel 1
# Protocol: (§1) For the Western blotting, the bacteria were incubated to the desired optical density, subjected to the freeze-thaw cycle and mixed with the sample loading buffer. The samples were heated at 100° C. for 15 minutes and subjected to the PAGE. The number of cells per lane of the gel was kept constant at 10^8 cells. The western blotting was performed in accordance with a standard procedure (Sambrook, J. and Russel D. W. Molecular Cloning, a laboratory manual, 3rd ed. Cold Spring Harbor Laboratory Press, NY, 2001). Briefly, after PAGE the samples were transferred onto the nitrocellulose membrane and the latter subjected to the standard ELISA procedure. The anti-GTFB mouse monoclonal antibody was previously characterized (Fukushima, K., Okada, T., Ochiai, K., Infection and Immunity 61:323–328 (1993), incorporated herein by reference). The secondary antibody (HRP-linked goat anti-mouse) and the detection reagents were purchased from Cell Signaling Technology (Beverly, Mass.).
# (§2) Synthetic CSP was dissolved in water to the concentration of 1 mg/mL as described in Li, Y-H et al., J. of Bact., 183:897–908 (2001). […]
# (§3) A Western blot analysis was performed to determine the effect of CSP on the level of GTFB expression. […] As a control, the same blot was analyzed with antibody specific to FTF, where it was observed that CSP has no effect on FTF expression (FIG. 6, panel 2).
# FTF expression = experiment: Western blot control with antibody specific to FTF; assay type: cell-based, S. mutans; conditions: same blot analyzed with antibody specific to FTF; FIG. 6 panel 2
# Protocol: as §1, §2, §3
# gtfB gene of S. mutans = experiment: Transcriptional fusion assay (gtfB promoter-luciferase, luminescence); assay type: cell-based; conditions: increasing concentrations of CSP, 10 minutes incubation at peak expression (end of lag phase); FIG. 7
# Excerpt: The fusion constructs and the transcription assay were previously described (Goodman, S. D. and Gao, Q., Plasmid 43:85–98 (2000)). Briefly, the constructs comprised the upstream regions of the gtfB and gtfC genes fused to the promoterless coding sequence of the firefly luciferase gene and inserted into the plasmid vector pVA838, a shuttle plasmid capable of propagating in both E. coli and S. mutans marked with erythromycin resistance. The plasmids were introduced into S. mutans GS5 by electroporation and the resulting erythromycin resistant strains were grown in liquid cultures and collected at various optical densities. The reporter gene (luciferase) expression was detected by measuring luminescence upon the addition of luciferin (the substrate for luciferase), see Goodman, S. D. and Gao Q. Plasmid 42:154–157 (1999), incorporated herein by reference.
# as §2
# The transcriptional fusion assay was performed to determine whether CSP inhibits the expression of the gtfB gene of S. mutans. […] When the expression peaked at the end of the lag phase prior to the exponential growth, the cells were challenged with increasing concentrations of CSP for an incubation period of 10 minutes and assessed for luminescence, the measure of reporter gene expression. […]
# S. mutans = experiment: In vitro attachment assay to a smooth surface (Petri dish) with sucrose; assay type: cell-based; conditions: CSP at 8 μg/mL for 10 minutes prior to hour-long incubation on Petri dishes with sucrose; up to 51% without CSP; FIG. 8
# Protocol: The bacteria were grown in liquid cultures to the desired optical density. 20 ml of the cultures were then transferred into Petri dishes and sucrose added to the final concentration of 2%. The incubation was resumed for one hour, after which the liquid fraction was withdrawn and the fresh medium was added into which the layer of attached cells was scraped. The percentage of the attached bacteria was determined as the ratio of the optical densities of the attached to the total (a sum of attached and unattached) bacteria.
# Synthetic CSP was dissolved in water to the concentration of 1 mg/mL as described in Li, Y-H et al., J. of Bact., 183:897–908 (2001). The cultures were grown in Todd Hewitt Broth (THB) supplemented with 5% horse serum. CSP was added to the cultures at the time of diluting the overnight culture (time zero of the culture growth) to a designated concentration between 1 and 8 mcg/mL. The incubation then continued up to the optical density where the expression of GTF is maximal (OD 650=0.1). The cultures where then collected and used in Western blotting with anti-glucosyltransferase (gtf) antibody. […]
# An in vitro assay was performed to determine whether CSP can inhibit the attachment of S. mutans to a smooth surface. When sucrose was added to the medium, the wild-type S. mutans readily attached to the surface of a Petri dish. […]
substance,measurement,setting,value
CSP: natural peptide produced and secreted by S. mutans that acts as an autoinducer; sequence SEQ ID NO: 1 (FIG. 1); synthetic CSP was used (SGSLSTFFRLFNRSFTQALGK; Streptococcus mutans),peak expression of GTFB (Western blot),[1],lowered proportionally to the amount of peptide added
same,effect on FTF expression (Western blot),FTF expression,no effect
same,repression of gtfB reporter gene expression (luminescence),gtfB gene of S. mutans,increasing concentrations of CSP increased the magnitude of repression
same,bacterial cells localized to the attached layer,S. mutans,less than 8%
